molecular target: T1, B1R receptor of the rat (CHO K1 cells stably transfected with the B1R gene of the rat) (Rattus norvegicus, UniProt P97583); assay: Functional study on the bradykinin receptor 1 (B1R), Ca2+ fluorescence (Fluo-4) FLIPR/Novostar assay, rB1R cells; assay type: cell-based; details: CHO-K1, 10 μM, read-out: % Inhibition (r-B1R) at 10 μM
T1 construct: expressed in transfected cells; host or cells: CHO K1 cells (Chinese hamster ovary), stably transfected
T1 sequence (P97583 1-337): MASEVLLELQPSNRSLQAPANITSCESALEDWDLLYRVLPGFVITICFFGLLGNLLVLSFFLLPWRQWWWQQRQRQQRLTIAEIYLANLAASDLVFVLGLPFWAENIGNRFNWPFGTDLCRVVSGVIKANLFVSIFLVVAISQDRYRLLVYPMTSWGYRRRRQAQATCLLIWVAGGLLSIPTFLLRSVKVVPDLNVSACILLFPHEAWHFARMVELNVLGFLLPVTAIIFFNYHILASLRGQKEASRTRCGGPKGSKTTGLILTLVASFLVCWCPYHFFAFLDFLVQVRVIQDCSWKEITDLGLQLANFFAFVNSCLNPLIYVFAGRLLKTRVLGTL
Method in brief: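 Ca2+ influx (Fluo-4, peak fluorescence, λex 488/λem 540 nm) was measured in CHO K1 lines expressing rat or human B1R. After a 10 μM test-compound pre-addition scoring % activation, cells received EC80 agonist: Des-Arg9-bradykinin for rat, Lys-Des-Arg9-bradykinin for human. Antagonism was expressed as % of maximum inhibition, with IC50 from varied concentrations.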

| SMILES | inhibition at 10 µM |
| --- | --- |
| Cc1cc(N2CCC(N(C)C(=O)c3ccc4c(c3)C(N(C)C(=O)c3c(Cl)cccc3C(F)(F)F)CC4)CC2)cc(C)n1 (stereo not shown) [CC_H-329, 3-[[2-Chloro-6-(trifluoromethyl)-benzoyl]-methyl-amino]-N-[1-(2,6-dimethyl-pyridin-4-yl)-piperidin-4-yl]-N-methyl-2,3-dihydro-1H-indene-5-carboxylic acid amide] | 111% |
| Cc1cc(N2CCC(N(C)C(=O)c3ccc4c(c3)C(N(C)S(=O)(=O)c3c(C)cccc3Cl)CC4)CC2)cc(C)n1 (stereo not shown) [CC_H-335, 3-[[(2-Chloro-6-methyl-phenyl)sulfonyl]-methyl-amino]-N-[1-(2,6-dimethyl-pyridin-4-yl)-piperidin-4-yl]-N-methyl-2,3-dihydro-1H-indene-5-carboxylic acid amide] | 110% |
| Cc1cc(N2CCC(N(C)C(=O)c3ccc4c(c3)C(N(C)C(=O)Nc3ccccc3Cl)CC4)CC2)cc(C)n1 (stereo not shown) [CC_H-336, 3-[[(2-Chlorophenyl)-carbamoyl]-methyl-amino]-N-[1-(2,6-dimethyl-pyridin-4-yl)-piperidin-4-yl]-N-methyl-2,3-dihydro-1H-indene-5-carboxylic acid amide] | 97% |
| Cc1cc(N2CCC(N(C)C(=O)c3ccc4c(c3)C(N(C)C(=O)Nc3cccc(Cl)c3)CC4)CC2)cc(C)n1 (stereo not shown) [CC_H-337, 3-[[(3-Chlorophenyl)-carbamoyl]-methyl-amino]-N-[1-(2,6-dimethyl-pyridin-4-yl)-piperidin-4-yl]-N-methyl-2,3-dihydro-1H-indene-5-carboxylic acid amide] | 110% |

More lines, now with the values ahead:

| inhibition at 10 µM | SMILES |
| --- | --- |
| 112% | Cc1cc(N2CCC(N(C)C(=O)c3ccc4c(c3)C(N(C)C(=O)c3c(F)ccc(C)c3Cl)CC4)CC2)cc(C)n1 (stereo not shown) [CC_H-327, 3-[(2-Chloro-6-fluoro-3-methyl-benzoyl)-methyl-amino]-N-[1-(2,6-dimethyl-pyridin-4-yl)-piperidin-4-yl]-N-methyl-2,3-dihydro-1H-indene-5-carboxylic acid amide] |
| 111% | Cc1cc(N2CCC(N(C)C(=O)c3ccc4c(c3)C(N(C)C(=O)c3cc(Cl)ccc3Cl)CC4)CC2)cc(C)n1 (stereo not shown) [CC_H-328, 3-[(2,5-Dichloro-benzoyl)-methyl-amino]-N-[1-(2,6-dimethyl-pyridin-4-yl)-piperidin-4-yl]-N-methyl-2,3-dihydro-1H-indene-5-carboxylic acid amide] |
| 111% | Cc1cc(N2CCC(N(C)C(=O)c3ccc4c(c3)C(N(C)C(=O)C3CCCCC3)CC4)CC2)cc(C)n1 (stereo not shown) [CC_H-330, 3-(Cyclohexanecarbonyl-methyl-amino)-N-[1-(2,6-dimethyl-pyridin-4-yl)-piperidin-4-yl]-N-methyl-2,3-dihydro-1H-indene-5-carboxylic acid amide] |
| 104% | Cc1cc(N2CCC(N(C)C(=O)c3ccc4c(c3)C(N(C)C(=O)C3CC3)CC4)CC2)cc(C)n1 (stereo not shown) [CC_H-331, 3-(Cyclopropanecarbonyl-methyl-amino)-N-[1-(2,6-dimethyl-pyridin-4-yl)-piperidin-4-yl]-N-methyl-2,3-dihydro-1H-indene-5-carboxylic acid amide] |
| 111% | Cc1cc(N2CCC(N(C)C(=O)c3ccc4c(c3)C(N(C)C(=O)CC(C)(C)C)CC4)CC2)cc(C)n1 (stereo not shown) [CC_H-332, 3-(3,3-Dimethyl-butanoyl-methyl-amino)-N-[1-(2,6-dimethyl-pyridin-4-yl)-piperidin-4-yl]-N-methyl-2,3-dihydro-1H-indene-5-carboxylic acid amide] |
| 84% | COCC(=O)N(C)C1CCc2ccc(C(=O)N(C)C3CCN(c4cc(C)nc(C)c4)CC3)cc21 (stereo not shown) [CC_H-333, N-[1-(2,6-Dimethyl-pyridin-4-yl)-piperidin-4-yl]-3-[(2-methoxy-acetyl)-methyl-amino]-N-methyl-2,3-dihydro-1H-indene-5-carboxylic acid amide] |
